The values that follow come from US20230142981A1, “METHOD FOR IDENTIFING A MARKER FOR A BIOLOGICAL INTERACTION” (ARPEGGIO BIOSCIENCES, INC., priority 2020, published 2023).

The subject of series [1] is HMOX1. Description: RT-qPCR assay of HMOX1 expression in 786-O cells. It is filed as cell-based. The note with it: 1 μM; for relative expression of HMOX1 in the absence of ferrostatin-1: four hours, relative to ACTB. As to the method:
(§1) To confirm HMOX1 induction by the GPX4 inhibitors, an RT-qPCR assay was performed using three ferroptosis sensitive cancer cell lines: the fibrosarcoma cell line HT-1080, a Ewing's sarcoma cell line A673, and a renal clear cell carcinoma cell line 786-O. Briefly, cells were exposed to 1 μM ML162 or 1 μM RSL3 for 4 hours, RNA was isolated and an RT-qPCR assay was performed.
(§2) Briefly, HT-1080, A673, and 786-O cells were exposed to 1 μM ML162 or 1 μM RLS3 with or without 1 μM ferrostatin-1 for four hours, RNA was isolated and an RT-qPCR assay was performed to quantify HMOX1 expression. DMSO was used as a control exposure.
(Quantitative PCR measures a nucleic acid by following its amplification.)

Series [2] has as its system HMOX1. Description: RT-qPCR assay of HMOX1 expression in A673 cells. It is filed as cell-based. The settings on record: A673, 1 μM; for relative expression of HMOX1 in the absence of ferrostatin-1: four hours, relative to ACTB. How it is done:
as §1, §2

In series [3] the test system is fibrosarcoma cell line HT-1080. The experiment in a line: nascent RNA sequencing of HT-1080 cells exposed to GPX4 inhibitors. It is filed as cell-based. The settings on record: 1 hour; for number of genes with significant changes in gene transcription: 1 μM, HT-1080 compared with IMR90; for HMOX1 differential expression (nascent RNA sequencing): HT-1080, 1 μM, Pval<10^−2. How it is done: (§3) To assess the transcriptional response of a cell to inhibition of GPX4, we exposed two cell lines to two different chemical inhibitors of GPX4 (ML162 and RSL3; available from Sigma Aldrich and Apex Bio respectively) and examined the transcriptional responses using a nascent RNA sequencing protocol. Briefly, a fibrosarcoma cell line HT-1080 and a lung fibroblast cell line IMR90 were exposed to 1 μM ML162 or 1 μM RSL3 for 1 hour and the nascent RNA sequencing protocol was performed.

Series [4] deals with HMOX1. Description: RT-qPCR assay of HMOX1 expression in HT-1080 cells. It counts as cell-based. The settings on record: for relative expression of HMOX1 in the absence of ferrostatin-1: HT-1080, 1 μM, four hours; for effect of ferrostatin-1 on induction of HMOX1: HT-1080, sodium arsenite 80 μM, hemin 5 μM, RSL3 1 μM, with or without 1 μM ferrostatin-1, four hours, normalized to DMSO control. As to the method:
as §1
To further validate induction of HMOX1 mRNA expression by GPX4 inhibition, RT-qPCR was performed using varying doses of the RSL3 inhibitor. Briefly, HT-1080 cells were exposed to 5 μM RSL3, 1 μM RSL3, and 0.2 μM RSL3 for four hours, RNA was isolated and an RT-qPCR assay was performed to quantify HMOX1 expression. DMSO was used as a control exposure.
as §2
Sodium arsenite and hemin are known to be inducers of general oxidative stress in cells. Briefly, HT-1080 cells were exposed to sodium arsenite (80 μM), hemin (5 μM), ML162 (1 μM), or RSL3 (1 μM) with or without 1 μM ferrostatin-1 for four hours, RNA was isolated and an RT-qPCR assay was performed to quantify HMOX1 expression. DMSO was used as a control exposure.

For series [5], the system named is lung fibroblast cell line IMR90. The experiment in a line: nascent RNA sequencing of IMR90 cells exposed to GPX4 inhibitors. The note with it: IMR90, 1 μM, 1 hour, Pval 10^−3. It is filed as cell-based. As to the method: as §3
In series [6] the test system is HT-1080. The settings on record: HT-1080, cells treated with small molecules that induce lipid peroxidation; cited from earlier work.
Series [7] has as its system A673. The settings on record: A673, cells treated with small molecules that induce lipid peroxidation; cited from earlier work.
Series [8] concerns 786-O. The note with it: cells treated with small molecules that induce lipid peroxidation; cited from earlier work.
The test system of series [9] is breast cancer cell line (MCF7). The experiment in a line: steady state RNA-seq of MCF7 cells after estradiol treatment. It counts as cell-based. The settings on record: MCF7, 100 nM estradiol, 15 minutes, pval 10^−3. How it is done: (§4) To assess the sensitivity and dynamic range of the nascent RNA sequencing assay in gauging a cellular response to a stimulus, the performance of a steady state RNA-seq protocol was compared against a nascent RNA sequencing protocol using a breast cancer cell line (MCF7) model and estrogen treatment to elicit a well characterized, widespread transcriptional response driven by ERα and ERβ transcription factors. Briefly, cell cultures were treated with 100 nM estradiol for 15 minutes or left untreated (i.e., untreated controls) and a steady state RNA-seq protocol or the nascent RNA sequencing assay described herein above was performed.

The subject of series [10] is breast cancer cell line (MCF7). Description: nascent RNA sequencing (SNAP-seq) of MCF7 cells after estradiol treatment. It counts as cell-based. The settings on record: MCF7, 100 nM estradiol, 15 minutes, significance threshold pval 10^−3. As to the method:
as §4

The mark [11] stands for this setting: 4 hours, normalized to DMSO control, n=2.

In the case of `COc1ccc(N(C(=O)CCl)C(C(=O)NCCc2ccccc2)c2cccs2)cc1Cl` (stereo not drawn) [ML162], the “fold induction for HMOX1 mRNA” value in series [1] (setting [11]), in [2] (setting [11]) and in series [4] (1 µM) was “induced” throughout. The “relative expression of HMOX1 in the absence of ferrostatin-1” value in series [1], in [2] and in [4] (relative to ACTB) was “HMOX1 expression was observed” in each case. In series [3], the “number of genes with significant changes in gene transcription” value is listed as “greater in the HT-1080 cell line relative to the IMR90 cell line”. Besides, the “HMOX1 differential expression (nascent RNA sequencing)” value in series [3] and in [5] was “strongly differentially expressed” throughout. Also, the “relative expression of HMOX1 in the presence of ferrostatin-1” value in [4] (HT-1080, 1 μM with 1 μM ferrostatin-1, four hours, relative to ACTB) was “induced HMOX1 even in the presence of ferrostatin-1”.
Consider `COC(=O)c1ccc([C@@H]2c3[nH]c4ccccc4c3C[C@@H](C(=O)OC)N2C(=O)CCl)cc1` [RSL3], for which the “relative expression of HMOX1 in the absence of ferrostatin-1” value in [1], in [2] and in [4] (relative to ACTB) was “HMOX1 expression was observed” each time. In series [3], the “number of genes with significant changes in gene transcription” value is listed as “greater in the HT-1080 cell line relative to the IMR90 cell line”. The “HMOX1 differential expression (nascent RNA sequencing)” value in series [3] and in series [5] was “strongly differentially expressed” each time. In addition, the “effect of ferrostatin-1 on induction of HMOX1” value (“effect … of HMOX1” for short) in series [4] was “dependent on lipid peroxidation”.
As for `CCOC(=O)c1ccc(NC2CCCCC2)c(N)c1` [ferrostatin-1], the “rescue of cellular viability (ferroptosis-protective effect)” value in series [6], in [7] and in series [8] was “ferroptosis-protective effect has been observed” throughout.
On to hemin, for which, in series [4], the “effect … of HMOX1” value is recorded as “not affected by the presence of ferrostatin-1”.
On to `C[C@]12CC[C@@H]3c4ccc(O)cc4CC[C@H]3[C@@H]1CC[C@@H]2O` [estradiol], for which the “number of differentially expressed genes (estradiol/untreated), steady-state RNA-seq” value in [9] amounted to 8. For the same molecule, the “number of differentially expressed genes (estradiol/untreated), nascent RNA sequencing (SNAP-seq)” value in series [10] stood at 762.
Regarding `O=[As]O` [sodium arsenite], the “effect … of HMOX1” value in [4] is “not affected by the presence of ferrostatin-1”.
